The source of these data is paper PMC8041284, “Tunable Methacrylamides for Covalent Ligand Directed Release Chemistry” (Journal of the American Chemical Society, 2021).

Each structure is given as a SMILES string. Where a SMILES comes first, the peptide text is derived from it. [ ]: non-standard residue; d: D form. pGlu = O=C1CC[C@@H](C(=O)O)N1; Thz = O=C(O)[C@@H]1CSCN1

In the first experiment the target is T1, BTK (Homo sapiens, UniProt Q06187).
T1 sequence (Q06187 402-655 limits assumed): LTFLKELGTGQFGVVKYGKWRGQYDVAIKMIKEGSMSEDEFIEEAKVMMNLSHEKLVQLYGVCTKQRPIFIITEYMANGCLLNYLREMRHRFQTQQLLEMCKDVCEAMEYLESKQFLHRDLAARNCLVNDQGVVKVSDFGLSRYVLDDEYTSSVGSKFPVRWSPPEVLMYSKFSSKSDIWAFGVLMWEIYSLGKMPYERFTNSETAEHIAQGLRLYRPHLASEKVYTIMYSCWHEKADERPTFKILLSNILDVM
Assay: not given
Conditions: 0.75 uM BTK, […] probe 3l, 15 min preincubation, 10 µM, inhibitor, BTK inhibition (%).
With `COc1cc(NS(=O)(=O)c2ccc(N)cc2)nc(OC)n1` [PCM-0216005], the “BTK inhibition (%)” value was -11.6%.
On the same count and under the same terms, in the case of `CC1(C)[C@@H](O[C@H]2O[C@H](C(=O)O)[C@@H](O)[C@H](O)[C@H]2O[C@@H]2O[C@H](C(=O)O)[C@@H](O)[C@H](O)[C@H]2O)CC[C@]2(C)[C@H]3C(=O)C=C4[C@@H]5C[C@@](C)(C(=O)O)CC[C@]5(C)CC[C@@]4(C)[C@]3(C)CC[C@@H]12` [PCM-0214876] it was 35.9%; in that of `COc1ccc2[nH]c([S@@+]([O-])Cc3ncc(C)c(OC)c3C)nc2c1` [PCM-0214815], -10.9%.
For `C/C=C(/C)C(=O)O[C@H]1[C@@H](OC(C)=O)c2c(ccc3ccc(=O)oc23)OC1(C)C` [PCM-0216546], the “BTK inhibition (%)” value is -14.7%.
Same read-out and setting: in the case of `C[C@H](O)[C@H](O)[C@@H](O)[C@@H](O)C=O` [PCM-0094862] it was -7.8%; in that of `C=C1[C@H](CO)[C@@H](O)C[C@@H]1n1cnc2c(=O)[nH]c(N)nc21` [PCM-0095007], -4.7%; in that of `CC(=O)Oc1ccccc1C(=O)O` [PCM-0214911], 1.6%.
The same measure, in the same setting: in the case of `Cc1cc(C)nc(NS(=O)(=O)c2ccc(N)cc2)n1` [PCM-0216008] it was 11.7%; in that of `Cc1ccccc1C(=O)Nc1ccc(C(=O)N2CCCC(N(C)C)c3ccccc32)cc1` (stereo not shown) [PCM-0095424], 70%; in that of `Cc1c(O)c(=O)ccn1C` [PCM-0085974], -30.4%.

Still in this experiment, the particulars now being: 0.75 uM BTK, […] probe 3l, 15 min preincubation; 10 µM; inhibitor.
As for `C[C@@H]1CC[C@@]2(OC1)O[C@H]1C[C@H]3[C@@H]4CC=C5C[C@@H](O[C@@H]6O[C@H](CO)[C@@H](O[C@@H]7O[C@@H](C)[C@H](O)[C@@H](O)[C@H]7O)[C@H](O)[C@H]6O[C@@H]6O[C@@H](C)[C@H](O)[C@@H](O)[C@H]6O)CC[C@]5(C)[C@H]4CC[C@]3(C)[C@H]1[C@@H]2C` [PCM-0214660], the “BTK inhibition (%)” value is on record as 38.1%.

The target in a further experiment is T1, BTK. Briefly: biochemical. Conditions: read-out: BTK inhibition (%).
Regarding `COc1cc(Br)c(Nc2nc(-c3c(C)nc4ncccn34)cs2)c(Br)c1` [PCM-0095777], the inhibition (as a rule, the relative decrease from the control value, in per cent) at 10 µM was 34%.

The experiment is the same for the next values; noted with them: read-out: BTK inhibition (%), 0.75 uM BTK, […] probe 3l, 15 min preincubation.
Regarding `CCCNS(=O)(=O)Nc1ncnc(OCCOc2ncc(Br)cn2)c1-c1ccc(Br)cc1` [PCM-0095633], the inhibition at 10 µM was determined as 10%.
On the same count and under the same terms, in the case of `C[C@@H]1O[C@@H](OC[C@H]2O[C@@H](Oc3cc(O)c4c(c3)O[C@H](c3ccc(O)c(O)c3)CC4=O)[C@H](O)[C@@H](O)[C@@H]2O)[C@H](O)[C@H](O)[C@H]1O` [PCM-0216467] it was 10%; in that of `CCOC(=O)c1ccc(C#Cc2ccc3c(c2)C(C)(C)CCS3)nc1` [PCM-0095130], -16.6%.
As to `CC1=CC(=O)[C@H]2C[C@@H]1C2(C)C` [PCM-0216612], the inhibition at 10 µM turned out to be 7.7%.
For the compound `COc1ccc(-c2cc(=O)c3c(O)cc(O[C@@H]4O[C@H](CO)[C@@H](O)[C@H](O)[C@H]4O[C@@H]4O[C@@H](C)[C@H](O)[C@@H](O)[C@H]4O)cc3o2)cc1O` [PCM-0216549], the inhibition at 10 µM turned out to be 1.5%.
On the same count and under the same terms, in the case of `O=C1CC[C@@H](C(=O)N2CSC[C@H]2C(=O)O)N1` [PCM-0090672] ([pGlu]-[Thz]-OH) it was 11.7%.
Turning to `C[N+]1(C)CCC[C@H]1C(=O)[O-]` [PCM-0214966], the inhibition at 10 µM is 7.8%.
`COc1ccc(C(=O)CC2(O)C(=O)Nc3c(Cl)ccc(Cl)c32)cc1` (stereo not shown) [PCM-0215405]: the inhibition at 10 µM stood at 8.5%.
`CC(=O)O[C@]1(C(C)=O)CC[C@H]2[C@@H]3C[C@H](C)C4=CC(=O)CC[C@]4(C)[C@H]3CC[C@@]21C` [PCM-0095356]: the inhibition at 10 µM was -18.7%.
Same read-out and setting: in the case of `O=C(c1ccccc1)c1ccc2n1CCC2C(=O)O` (stereo not shown) [PCM-0065461] it was -11.7%; in that of `COc1cccc(/C=N/N(C(=O)C(F)(F)F)c2ccc(C)cc2C)c1` [PCM-0216073], 13.9%; in that of `O=C1N=C(N2CCOCC2)CN1c1ccc(Cl)cc1` [PCM-0216140], -1.5%.
Still for that read-out and setting: in the case of `Cc1cc(O)c2c(c1)C(=O)c1cccc(O)c1C2=O` [PCM-0090919] it was -4.8%.
